In patent US4859782A (priority 1987, dated 1989):
Converted amounts (≈) assume the structure as drawn. Where two headings read alike, the source gives them in different places.

Assays:
[1] = tested on: vesicular stomatitis virus (VSV); assay type: cell-based; settings: CV-1 cells, 8 μg/well
[2] = tested on: CV-1 cells; settings: for VSV cyt (cytotoxicity): VSV-infected CV-1 cells
[3] = tested on: herpes simplex type 1 (HSV-1); assay type: cell-based
[4] = tested on: Penicillium atrovenetum; assay: microbe, parasite or virus in culture; assay type: cell-based; settings: read-out: Antifungal activity, Pa: diameter of the zone of growth inhibition
[5] = tested on: Saccharomyces cerevisiae; assay: microbe, parasite or virus in culture; settings: read-out: Antifungal activity, […]
[6] = tested on: Candida albicans; assay: microbe, parasite or virus in culture; settings: read-out: Ca MIC
[7] = tested on: Candida albicans; assay: microbe, parasite or virus in culture; settings: read-out: Antifungal activity, […]

COC1CC(C)OC(CCC(C)C(O)C(C)C2OC(=O)C(C)=CCC(O)CC3C=CCC(CC(OC)C(C)C(O)CC(O)C(C)C(C(C)C(O)C(C)CCC4CC(OC)CC(C)O4)OC(=O)C(C)=CCC(O)CC4C=CCC(CC(OC)C(C)C(O)CC(O)C2C)O4)O3)C1 (stereo not drawn) [misakinolide, Misakinolide]
VSV av (antiviral activity) [1]: + | HSV-1 cyt (cytotoxicity) [2]: 0 | VSV cyt (cytotoxicity) ([2]; 4 μg/well): 0 | VSV cyt (cytotoxicity) ([2]; 8 μg/well): 0 | HSV-1 av (antiviral activity) [3]: ++ and + | zone of inhibition at 5 µg/disc [4]: 10 mm | zone of inhibition at 5 µg/disc [5]: 12 mm | MIC [6]: 5 µg/mL (≈ 3.74 µM) | zone of inhibition at 5 µg/disc [7]: 10 mm
